Laboratory results from US20190254992A1, “COMBINATIONS OF BETA-GLYCOLIPIDES AND 4-[(2-AMINO-3,5-DIBROMOPHENYL)METHYLAMINO]CYCLOHEXAN-1-OL, COMPOSITIONS AND USES THEREOF IN THE TREATMENT OF DISORDERS ASSOCIATED WITH PROTEIN MISFOLDING AND PROTEIN AGGREGATIONS” (HADASIT MEDICAL RESEARCH SERVICES & DEVELOPMENT LIMITED, priority 2016, published 2019).

Key:
[1] = test system: immune-mediated liver injury; test: Serum liver enzymes (ALT, AST) in ConA immune-mediated hepatitis mice; format: in vivo, C57Bl/6 mice; settings: oral, daily for 5 days, ConA-injected mice; for AST levels: control group A 9140; for ALT levels: control group A 24040
Method: Male C57Bl/6 mice (12 weeks old) were obtained from Harlan Laboratories (Jerusalem, Israel) and maintained in the Animal Core of the Hadassah-Hebrew University Medical School. Mice were kept at 11-12 weeks of age and maintained in the Animal Core of the Hadassah-Hebrew University Medical School. All mice were administered standard laboratory chow and water ad libitum and kept in a 12-hour light/dark cycle. All experiments were performed in accordance with the guidelines of the Hebrew University-Hadassah Institutional Committee for Care and Use of Laboratory Animals (IACUC protocol number: MD-16-14986-3). Four groups of mice (n=4) were studied. Mice in all groups were injected with Concanavalin A (Con A, […]). Mice in control group A were treated with PBS. Mice in group B were orally administered 6 mg of GC, per mouse daily for 5 days prior to ConA injection. […] Serum aspartate aminotransferase (AST) and alanine aminotransferase (ALT) levels were determined with an automatic analyzer on all mice in all groups.

[2] = test system: type 3 neuropathic GD; settings: high doses, cited from earlier work
[3] = test system: glucosylceramidase; settings: fibroblasts from healthy controls, Gaucher patients, heterozygous GBA mutation with and without Parkinson's disease; cited from earlier work
[4] = test system: serum cytokines (IL-1α, IL-4, IFN-γ, IL-6); test: Serum cytokine measurement (MILLIPLEX/Luminex) in ConA immune-mediated hepatitis mice; format: in vivo, C57Bl/6 mice; settings: oral, daily for 5 days, ConA-injected mice; for serum IL-1a: control group A 206.5; for serum IL-6: control group A 11768
Method: Male C57Bl/6 mice (12 weeks old) were obtained from Harlan Laboratories (Jerusalem, Israel) and maintained in the Animal Core of the Hadassah-Hebrew University Medical School. Mice were kept at 11-12 weeks of age and maintained in the Animal Core of the Hadassah-Hebrew University Medical School. All mice were administered standard laboratory chow and water ad libitum and kept in a 12-hour light/dark cycle. All experiments were performed in accordance with the guidelines of the Hebrew University-Hadassah Institutional Committee for Care and Use of Laboratory Animals (IACUC protocol number: MD-16-14986-3).
Four groups of mice (n=4) were studied. Mice in all groups were injected with Concanavalin A (Con A, […]). Mice in control group A were treated with PBS. Mice in group B were orally administered 6 mg of GC, per mouse daily for 5 days prior to ConA injection.
Cytokine assessment was performed by MILLIPLEX® Analytes (EMD Millipore Corporation, Missouri 63304 U.S.A.) based on the Luminex xMAP® technology for performing immunoassays on the surface of fluorescent-coded magnetic beads MagPlex®-C microspheres. Acquiring and analyzing the data were performed using the Luminex analyzer (MAGPIX®) software. Cytokines assessment was measured by mean fluorescence intensity (MFI).

[5] = test system: non-neuronopathic form of GD; settings: patients with non-neuronopathic GD; cited from earlier work
[6] = test system: alpha-synuclein; settings: neuroblastoma line engineered to overexpress alpha-synuclein; cited from earlier work

Compound | AST levels [1] [IU] | ALT levels [1] [IU] | subjective-functional scores and objective scores (VEP, ocular movements) ([2]; 5 individuals with type 3 neuropathic GD) | GCase activity in lymphocytes ([2]; type 3 neuropathic GD patients) | glucosylceramidase activity [3] | markers of oxidative stress [3] | IFN-γ change (in words) [4] | serum IL-1a [4] [pg/mL] | serum IL-6 [4] [pg/mL] | clinical outcome of ambroxol treatment [5] | alpha-synuclein levels [6] | IFN-γ ([4]; control group A 643) [pg/mL]
Nc1c(Br)cc(Br)cc1CN[C@H]1CC[C@H](O)CC1 [Ambroxol, trans-4-(2-Amino-3,5-dibrombenzylamino)-cyclohexanol] | 8516 | 16455 | substantial clinical improvement | Increased | increased | reduced | did not show any decrease | 131 | 9504 | disease stability | reduces | 
B-glucosylceramide [GC] | 2939 | 4198 |  |  |  |  |  | 48 | 984 |  |  | 36
